Test results from patent US6372772B1, “Inhibitors of redox signaling and methods of using same” (Prolx Pharmaceuticals Corporation, priority 1997, dated 2002).
≈ marks a conversion by molar mass, not a printed value. Like-named read-outs stand apart in the source and are kept apart here.

How the values were obtained:
[1] = system: human MCF-7 breast cancer; test: MCF-7 breast cancer xenografts in scid mice; format: in vivo; details: for tumor inhibition: MCF-7 tumor system
HL-60 leukemia = HL-60 leukemia xenografts in scid mice; format: in vivo; details: for antitumor activity against HL-60 leukemia: a number of the animals without tumor at day 45
[2] = molecular target: T1, thioredoxin reductase/thioredoxin (Homo sapiens, UniProt Q16881); test: thioredoxin reductase/thioredoxin-dependent insulin reduction assay; format: biochemical
T1 sequence (Q16881 1-499 isoform Q16881-5): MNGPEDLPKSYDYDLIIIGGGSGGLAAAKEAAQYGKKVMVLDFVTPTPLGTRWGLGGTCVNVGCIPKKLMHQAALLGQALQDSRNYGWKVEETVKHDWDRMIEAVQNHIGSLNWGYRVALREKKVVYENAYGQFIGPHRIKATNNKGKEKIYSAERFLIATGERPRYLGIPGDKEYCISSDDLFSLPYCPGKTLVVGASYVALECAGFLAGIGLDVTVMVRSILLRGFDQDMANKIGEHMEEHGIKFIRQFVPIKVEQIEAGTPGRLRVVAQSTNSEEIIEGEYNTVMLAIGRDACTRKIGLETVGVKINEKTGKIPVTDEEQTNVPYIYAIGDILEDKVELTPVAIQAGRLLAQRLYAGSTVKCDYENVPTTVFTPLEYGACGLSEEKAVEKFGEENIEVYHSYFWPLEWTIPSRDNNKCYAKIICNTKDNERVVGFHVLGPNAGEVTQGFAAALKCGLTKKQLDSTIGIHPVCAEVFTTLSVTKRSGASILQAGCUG

[3] = system: thioredoxin-dependent cell proliferation; test: thioredoxin- versus serum-dependent cell proliferation in culture; format: cell-based
tumors in the colon = test: min (multiple intestinal neoplasia) mouse chemoprevention; format: in vivo; details: in the diet at 250 ppm
Text: The min mouse has a germline mutation in the APC gene seen in human familial adenomatous polyposis (FAP). This model was chosen because of its genetic basis and as an alternative to chemically-induced models of colon cancer. The majority of the tumors that develops in the adult min mice are in the small intestine, although tumors are first diagnosed in the colon. FAP represents a high risk group of subjects with a readily identifiable early end-point marker that is suitable for trials of novel chemopreventive agents.

glutathione reductase = molecular target: T2, glutathione reductase (Homo sapiens, UniProt P00390); test: glutathione reductase assay (DTNB reduction); format: biochemical
T2 sequence (P00390 1-479 isoform P00390-2): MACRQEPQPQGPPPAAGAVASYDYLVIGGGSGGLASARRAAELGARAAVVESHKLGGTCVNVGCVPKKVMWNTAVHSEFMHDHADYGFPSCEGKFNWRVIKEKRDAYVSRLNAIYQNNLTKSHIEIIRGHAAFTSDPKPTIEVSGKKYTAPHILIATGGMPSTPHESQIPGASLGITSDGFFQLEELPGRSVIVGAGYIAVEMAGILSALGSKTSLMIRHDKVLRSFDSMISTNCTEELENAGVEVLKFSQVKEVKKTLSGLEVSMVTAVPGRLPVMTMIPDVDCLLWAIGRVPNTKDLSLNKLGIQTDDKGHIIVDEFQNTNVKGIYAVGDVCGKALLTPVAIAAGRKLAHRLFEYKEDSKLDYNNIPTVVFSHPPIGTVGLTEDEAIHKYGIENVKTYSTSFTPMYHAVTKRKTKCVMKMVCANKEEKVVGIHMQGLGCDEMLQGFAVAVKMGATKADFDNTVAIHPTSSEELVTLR

[4] = system: NCI's panel of 60 human cancer cell lines; details: cited from earlier work
leukemia cell line = details: cited from earlier work
thioredoxin reductase = molecular target: T3, thioredoxin reductase (Homo sapiens, UniProt Q16881); test: biochemical
T3 sequence (Q16881 1-499 isoform Q16881-5): T1 sequence (Q16881 1-499 isoform Q16881-5)

[5] = system: MCF-7 breast cancer cells; details: read-out: EC50 for thioredoxin growth stimulation; cited from earlier work
[6] = Table III, read-out: in vitro IC50 TR/Trx (μg/ml) (converted)
[7] = Table II, read-out: IC50GR (μg/ml) (converted)
[8] = mean 50% growth inhibition concentration, entire cell line panel
[9] = mean 50% growth inhibition concentration, leukemias
[10] = Table I, 30 min preincubation, read-out: IC50 (μg/ml) in TR/Trx Assay (converted)
[11] = Table II, read-out: IC50TRTrx (μg/ml) (converted)
[12] = ratio of IC50 TR alone and IC50 TR/Trx assay

| Compound | IC50 [2, 6] [nM] | IC50 (glutathione reductase; [7]) [nM] | GI50 (μg/ml) All Tumors [4, 8] [µg/mL] | GI50 (μg/ml) Leukemias (leukemia cell line; [9]) [µg/mL] | IC50 [2, 10] [nM] | IC50 [2, 11] [nM] | TR/TRTrx [2, 12] | other results |
| --- | --- | --- | --- | --- | --- | --- | --- | --- |
| c1ccc(CSSc2ncc[nH]2)cc1 [DLK-36, benzyl-2-imidazolyl disulfide] | 180000 | – | – | – | – | – | – | T/C % tumor volume at day 28 ([1]; 25 mg/kg/day for 14 days): 100.7%; T/C % tumor volume at day 28 ([1]; 40 mg/kg/day for 14 days): 23.7%; tumor inhibition [1]: 65%; antitumor activity against HL-60 leukemia (HL-60 leukemia): showed antitumor activity |
| CCC(C)SSc1ncc[nH]1 (centres unmarked) [IV-2, 1-methylpropyl 2-imidazolyl disulfide] | – | – | – | – | – | – | – | T/C % tumor volume at day 28 ([1]; 5 mg/kg/day for 14 days): 56.7%; T/C % tumor volume at day 28 ([1]; 10 mg/kg/day for 14 days): 45.9%; T/C % tumor volume at day 28 ([1]; 15 mg/kg/day for 14 days): 2.3%; tumor inhibition [1]: 98%; antitumor activity against MCF-7 xenografts ([1]; scid mice): dose-dependent antitumor activity; inhibition of thioredoxin- versus serum-dependent cell proliferation [3]: greater inhibition of thioredoxin than serum-dependent cell proliferation; antitumor activity against HL-60 xenografts (HL-60 leukemia): dose-dependent antitumor activity; antitumor activity against HL-60 leukemia (HL-60 leukemia): showed antitumor activity; size of remaining tumors (tumors in the colon; p<0.001 compared to control): significant reduction in the size of remaining tumors; reduction of number of tumors in the colon (tumors in the colon; p=0.0160): 70% |
| CCCC(=O)OC1C2C(CC1(C)C)C(=O)C13OC1C(=O)C1(CO1)C23C (centres unmarked) [NSC 163027] | ≤ 1440 | 115000 | 3.1 (≈ 8.9 µM) | 0.6 (≈ 1.72 µM) | 1090 | 1090 | 13.2 | IC50 (thioredoxin reductase): 14400 nM |
| Cc1cc2c(c(O)c1-c1c(C)cc(O)c3c1C(=O)C=CC3=O)C(=O)C=CC2=O [NSC 208731] | ≤ 267 | 13400 | 0.6 (≈ 1.6 µM) | 0.03 (≈ 0.0801 µM) | 267 | 267 | 1.0 | – |
| C=C(CN(C)C)C(=O)c1ccc(C)cc1C [NSC 382000] | ≤ 460 | 13800 | 1.0 (≈ 4.6 µM) | 0.1 (≈ 0.46 µM) | 460 | 460 | 1.0 | – |
| CC1COC2C3=C(C(=O)C=CC3=O)C3OC(=O)C4CCC5CC1CCC52C43 (centres unmarked) [NSC 401005] | ≤ 271 | 40700 | 7.6 (≈ 20.6 µM) | 1.8 (≈ 4.89 µM) | 163 | 163 | 1.7 | – |
| CC(C)(CN1C(=O)C(Cl)=C(Cl)C1=O)CN1C(=O)C(Cl)=C(Cl)C1=O [NSC 617145] | – | – | 4.4 (≈ 11 µM) | 0.2 (≈ 0.5 µM) | – | – | 0.8 | IC50 (glutathione reductase): 125000 nM; IC50 ([2]; IC50 (μg/ml) in TR/Trx Assay): 300 nM; IC50 ([2]; IC50TRTrx (μg/ml)): 300 nM; IC50 ([2]; in vitro IC50 TR/Trx (μg/ml)): ≤ 1250 nM |
| CCc1cccc(CC)c1NC(=O)/C(Cl)=C(/Cl)C(=O)O [NSC 618605] | ≤ 1580 | 108000 | 7.2 (≈ 22.8 µM) | 2.5 (≈ 7.91 µM) | 380 | 380 | 0.8 | – |
| COC(=O)C(CBr)CBr [NSC 620109] | – | – | – | – | – | – | – | IC50 (glutathione reductase; read-out: IC50GR (μg/ml) (converted)): 127000 nM; GI50 (μg/ml) All Tumors [4]: 1.1 µg/mL (≈ 4.23 µM); GI50 (μg/ml) Leukemias (leukemia cell line): 0.2 µg/mL (≈ 0.769 µM); TR/TRTrx [2]: 0.3; IC50 ([2]; read-out: IC50 (μg/ml) in TR/Trx Assay (converted)): 1230 nM; IC50 ([2]; read-out: IC50TRTrx (μg/ml) (converted)): 1230 nM; IC50 ([2]; read-out: in vitro IC50 TR/Trx (μg/ml) (converted)): ≤ 1920 nM |
| Cc1ccc(NC(=O)/C(Cl)=C(/Cl)C(=O)O)cc1 [NSC 622378] | ≤ 1820 | 73000 | 5.0 (≈ 18.2 µM) | 1.6 (≈ 5.84 µM) | 438 | 438 | 0.8 | – |
| Cc1cccc2c1c1ccc3c(c1n2C)C(=O)C=CC3=O [NSC 645330] | ≤ 18200 | 182000 | 1.5 (≈ 5.45 µM) | 0.3 (≈ 1.09 µM) | 6900 | 6870 | 26.5 | IC50 (thioredoxin reductase): 182000 nM |
| O=[N+]([O-])C(=C(Sc1ccccc1)Sc1ccccc1)C(Cl)=C(Cl)Cl [NSC 665103] | ≤ 239 | 76400 | 0.4 (≈ 0.955 µM) | 0.04 (≈ 0.0955 µM) | 239 | 239 | 50.0 | IC50 (thioredoxin reductase): 11900 nM |
| thioredoxin | – | – | – | – | – | – | – | EC50 [5]: 350 nM |
